The values that follow come from DBAASP.

Values after ≈ are worked out from the molar mass of the structure shown. Values joined by “and” are separate entries in the source; they are usually repeats but may differ in a detail not shown here. Equal entries are not always repeated.

What all share (experiment): ≥ marks a high value that may be exact or a test limit, other limits are often not marked, values filed in µg/mL are converted to µM
Assay [1] deals with Enterococcus faecalis NCTC 12697.
Assay [2] relates to Candida albicans NCYC 1467.
Assay [3] concerns Staphylococcus aureus NCTC 12493.
Assay [4] has as its system Klebsiella pneumoniae ATCC 43816.
The test system of assay [5] is Pseudomonas aeruginosa ATCC 27853.
Assay [6] relates to Staphylococcus aureus NCTC 10788.
Assay [7] relates to Escherichia coli NCTC 10418.
Assay [8] deals with Escherichia coli BW25113.
Assay [9] relates to Staphylococcus aureus ATCC BAA-1556.
In assay [10] the test system is Escherichia coli.
For assay [11], the system named is Salmonella enterica subsp. enterica serovar Enteritidis.
Assay [12] deals with Listeria innocua.
The test system of assay [13] is Micrococcus luteus A270.
Assay [14] deals with Aeromonas hydrophila.
Assay [15] relates to Vibrio harveyi.
For assay [16], the system named is Staphylococcus aureus SAP 0017.
In assay [17] the test system is Staphylococcus aureus ATCC 43300.
Assay [18] relates to Klebsiella pneumoniae.
In assay [19] the test system is Pseudomonas aeruginosa.
The test system of assay [20] is Streptococcus pneumoniae.
Assay [21] deals with Escherichia coli ATCC 25922.
For assay [22], the system named is Enterococcus faecium.
Assay [23] relates to Acinetobacter baumannii.

In the case of `CC[C@H](C)[C@@H]1NC(=O)[C@H](C)NC(=O)[C@@H](NC(=O)[C@H](Cc2ccccc2)NC(=O)[C@@H](NC(=O)[C@H](CCCCN)NC(=O)[C@H](Cc2c[nH]c3ccccc23)NC(=O)[C@@H]2CCCN2C(=O)[C@H](CC(C)C)NC(=O)[C@H](Cc2ccccc2)NC(=O)[C@H](CCCCN)NC(=O)[C@@H](N)CCCCN)[C@@H](C)CC)CSSC[C@@H](C(=O)O)NC(=O)[C@H](CCCCN)NC(=O)[C@H](CCCCN)NC(=O)[C@H]([C@@H](C)O)NC1=O` [KKFLPWKIFCAITKKC], the minimal inhibitory concentration (MIC) was not below 256 µM in [1]; 8 µM (≈ 15.6 µg/mL) in [2]; 8 µM (≈ 15.6 µg/mL) in assay [3]; not below 32 µM in [4]; 64 µM (≈ 125 µg/mL) in assay [5]; 8 µM (≈ 15.6 µg/mL) in assay [6]. The MIC in [7] amounted to 16 µM (≈ 31.2 µg/mL).
On to `CC[C@H](C)[C@H](NC(=O)[C@@H]1CCCN1C(=O)[C@H](Cc1c[nH]c2ccccc12)NC(=O)[C@H](CCCN=C(N)N)NC(=O)[C@H](Cc1c[nH]c2ccccc12)NC(=O)[C@@H](N)CCCN=C(N)N)C(=O)N[C@@H](CCCN=C(N)N)C(=O)N[C@@H](CCCN=C(N)N)C(=O)N1CCC[C@H]1C(=O)N1CCC[C@H]1C(=O)N[C@H](C(=O)N[C@@H](CCCN=C(N)N)C(=O)N1CCC[C@H]1C(=O)N1CCC[C@H]1C(=O)N[C@@H](Cc1c[nH]c2ccccc12)C(=O)N[C@@H](Cc1ccc(O)cc1)C(=O)N1CCC[C@H]1C(=O)O)[C@@H](C)CC` [RWRWPIRRPPIRPPWYP], for which the MIC in assay [8] is 8 µM (≈ 18.6 µg/mL).
`CC(C)C[C@H](NC(=O)[C@H](CC(C)C)NC(=O)[C@H](CC(C)C)NC(=O)[C@H](CCCCN)NC(=O)[C@H](CC(C)C)NC(=O)[C@H](CCCCN)NC(=O)[C@H](CC(C)C)NC(=O)[C@H](CC(C)C)NC(=O)[C@@H](N)CC(C)C)C(N)=O` [LLLKLKLLL]: the minimum inhibitory concentration (MIC) in assay [9] was not below 100 µM.
As for `CC(C)C[C@H](NC(=O)[C@H](C)NC(=O)[C@H](CC(N)=O)NC(=O)[C@H](C)NC(=O)[C@@H](NC(=O)CNC(=O)[C@H](C)NC(=O)[C@@H](NC(=O)[C@@H](NC(=O)[C@H](CCCCN)NC(=O)[C@H](CCC(N)=O)NC(=O)[C@H](Cc1ccccc1)NC(=O)[C@H](CC(=O)O)NC(=O)[C@H](C)NC(=O)[C@@H](N)CCC(N)=O)C(C)C)C(C)C)C(C)C)C(=O)N[C@@H](C)C(=O)N[C@@H](Cc1cnc[nH]1)C(=O)N[C@@H](CCCN=C(N)N)C(=O)N[C@@H](Cc1ccc(O)cc1)C(=O)N[C@@H](Cc1cnc[nH]1)C(=O)O` [QADFQKVVAGVANALAHRYH], the MIC in assay [10] was 71 µM (≈ 156 µg/mL); in assay [11] it was not below 35 µM; in [12], not below 71 µM; in assay [13] it was not below 71 µM.
Turning to `CC[C@H](C)[C@H](NC(=O)[C@@H]1CCCN1C(=O)[C@H](CCCN=C(N)N)NC(=O)[C@H](CCCN=C(N)N)NC(=O)[C@H](Cc1ccccc1)NC(=O)[C@@H](N)CCCN=C(N)N)C(=O)N[C@@H](CCCN=C(N)N)C(=O)N[C@@H](CCCN=C(N)N)C(=O)N1CCC[C@H]1C(=O)N1CCC[C@H]1C(=O)N[C@H](C(=O)N[C@@H](CCCN=C(N)N)C(=O)N1CCC[C@H]1C(=O)N1CCC[C@H]1C(=O)N[C@@H](Cc1c[nH]c2ccccc12)C(=O)N[C@@H](Cc1ccc(O)cc1)C(=O)N1CCC[C@H]1C(=O)O)[C@@H](C)CC` [RFRRPIRRPPIRPPWYP], in assay [8], the MIC worked out at 12 µM (≈ 27.1 µg/mL).
For `CC[C@H](C)[C@H](NC(=O)[C@H](C)NC(=O)[C@H](CCCN=C(N)N)NC(=O)[C@H](Cc1cnc[nH]1)NC(=O)[C@@H](NC(=O)[C@H](C)NC(=O)[C@H](CCCN=C(N)N)NC(=O)[C@@H](NC(=O)CNC(=O)[C@H](Cc1cnc[nH]1)NC(=O)[C@H](CO)NC(=O)[C@@H](NC(=O)[C@H](Cc1c[nH]c2ccccc12)NC(=O)CNC(=O)[C@@H](NC(=O)[C@@H](NC(=O)[C@H](C)NC(=O)[C@H](Cc1cnc[nH]1)NC(=O)[C@@H](NC(=O)[C@@H](N)Cc1ccccc1)[C@@H](C)CC)[C@@H](C)CC)[C@@H](C)CC)[C@@H](C)CC)C(C)C)[C@@H](C)CC)C(=O)N[C@@H](Cc1cnc[nH]1)C(N)=O` [FIHAIIGWISHGVRAIHRAIH], the minimum inhibitory concentration (MIC) was 16 µM (≈ 38.5 µg/mL) in [14] and not below 32 µM in assay [15].
In the case of `CC[C@H](C)[C@H](N)C(=O)N[C@@H](CC(C)C)C(=O)N[C@H](C(=O)N[C@@H](CCCN=C(N)N)C(=O)N[C@@H](Cc1c[nH]c2ccccc12)C(=O)N[C@H](C(=O)N[C@@H](CCCN=C(N)N)C(=O)N[C@@H](Cc1c[nH]c2ccccc12)C(=O)N[C@@H](CCCN=C(N)N)C(=O)N[C@H](C(=O)N[C@@H](CCC(N)=O)C(=O)N[C@@H](Cc1c[nH]c2ccccc12)C(N)=O)[C@@H](C)CC)[C@@H](C)CC)C(C)C` [ILVRWIRWRIQW], in [16], the MIC is 2 µM and 4 µM.
`CC(C)C[C@H](NC(=O)[C@H](CC(C)C)NC(=O)[C@H](CC(C)C)NC(=O)[C@H](CCCCN)NC(=O)[C@H](CC(C)C)NC(=O)[C@@H](N)CC(C)C)C(=O)N[C@@H](CCCCN)C(N)=O` [LLKLLLK] returned an MIC in assay [9] not below 100 µM.
As to `CC[C@H](C)[C@H](NC(=O)CNC(=O)[C@H](Cc1cnc[nH]1)NC(=O)CNC(=O)CN)C(=O)N[C@@H](CCCN=C(N)N)C(=O)N[C@@H](CCCN=C(N)N)C(=O)N[C@H](C(=O)N[C@H](C(=O)N[C@@H](CCCN=C(N)N)C(=O)N[C@@H](CCCCN)C(=O)N[C@H](C(=O)N[C@H](C(=O)N[C@@H](Cc1cnc[nH]1)C(=O)N[C@H](C(=O)N[C@H](C(=O)N[C@@H](CCCCN)C(=O)N[C@@H](CCCCN)C(=O)NCC(=O)NCC(=O)N[C@@H](CS)C(N)=O)[C@@H](C)CC)[C@@H](C)CC)[C@@H](C)CC)[C@@H](C)CC)[C@@H](C)CC)[C@@H](C)CC` [GGHGIRRIIRKIIHIIKKGGC], the minimum inhibitory concentration (MIC) is 4 µM (≈ 9.3 µg/mL) in assay [17]; more than 16 µM in assay [18]; 12 µM (≈ 27.9 µg/mL) in [19]; 8 µM (≈ 18.6 µg/mL) in [20]; 3 µM (≈ 6.97 µg/mL) in [21]; 8 µM (≈ 18.6 µg/mL) in assay [22]. In [23], this compound registered a minimal inhibitory concentration (MIC) of 9.3 µM (≈ 21.6 µg/mL).
As to `CC(C)C[C@H](NC(=O)[C@H](CC(C)C)NC(=O)[C@H](CCCCN)NC(=O)[C@H](CC(C)C)NC(=O)[C@H](CC(C)C)NC(=O)[C@H](CC(C)C)NC(=O)[C@@H](N)CCCCN)C(N)=O` [KLLLKLL], the minimum inhibitory concentration (MIC) in [9] is not below 100 µM.
For `CC[C@H](C)[C@H](NC(=O)[C@H](Cc1c[nH]c2ccccc12)NC(=O)[C@H](CCCN=C(N)N)NC(=O)[C@@H](N)CCCN=C(N)N)C(=O)N[C@@H](CCCN=C(N)N)C(=O)N[C@@H](Cc1c[nH]c2ccccc12)C(=O)N[C@@H](CC(C)C)C(N)=O` [RRWIRWL], the MIC in [9] was not below 100 µM.
Turning to `CC[C@H](C)[C@H](NC(=O)[C@H](C)NC(=O)[C@H](CO)NC(=O)[C@@H](NC(=O)[C@@H](NC(=O)[C@H](CCCCN)NC(=O)[C@@H]1CCCN1C(=O)[C@@H](NC(=O)[C@H](CC(C)C)NC(=O)[C@H](CO)NC(=O)[C@H](CC(C)C)NC(=O)[C@@H](N)Cc1ccccc1)[C@@H](C)CC)[C@@H](C)CC)[C@@H](C)CC)C(=O)N[C@@H](CO)C(=O)N[C@@H](C)C(=O)N[C@@H](CC(C)C)C(=O)N[C@H](C(=O)N[C@@H](CCCCN)C(=O)N[C@@H](Cc1cnc[nH]1)C(=O)N[C@@H](Cc1ccccc1)C(N)=O)[C@@H](C)CC` [FLSLIPKIISAISALIKHF], the MIC in [1] was 16 µM (≈ 33.8 µg/mL); in assay [2] it was not below 32 µM; in assay [3] it was not below 64 µM; in assay [4] it was not below 512 µM; in assay [5] it was more than 512 µM; in assay [6], 2 µM (≈ 4.22 µg/mL). Moreover, in [7], the MIC is not below 512 µM.
Take `CC[C@H](C)[C@H](NC(=O)[C@@H]1CCCN1C(=O)[C@H](CCCN=C(N)N)NC(=O)[C@H](CCCN=C(N)N)NC(=O)[C@H](Cc1ccccc1)NC(=O)[C@@H](N)CCCN=C(N)N)C(=O)N[C@@H](CCCN=C(N)N)C(=O)N[C@@H](CCCN=C(N)N)C(=O)N[C@@H](CCCN=C(N)N)C(=O)N1CCC[C@H]1C(=O)N[C@H](C(=O)N[C@@H](CCCN=C(N)N)C(=O)N1CCC[C@H]1C(=O)N1CCC[C@H]1C(=O)N[C@@H](Cc1c[nH]c2ccccc12)C(=O)N[C@@H](Cc1ccc(O)cc1)C(=O)N[C@@H](CCCN=C(N)N)C(=O)O)[C@@H](C)CC` [RFRRPIRRRPIRPPWYR]: in [8], the minimal inhibitory concentration (MIC) was found to be 8 µM (≈ 19 µg/mL).
